# From a melting point compilation (Tetko et al.; mined from patent text by program, amines drawn as free bases though some values may be those of a salt)
row,SMILES,melting point [°C]
1,CC(C)(C)CNN(CC(C)(C)C)S(=O)(=O)c1nc(Cl)cs1,157
2,OCc1cccnc1Oc1ccc(F)cc1,70 to 72
3,O=[N+]([O-])c1ccc2sc(NCCO)nc2c1,183
4,CN1Cc2c(Cc3ccc4c(c3)C(=O)NC4=O)ncn2-c2ccsc2C1=O,245 to 246
5,CCCCC(CC)C(=O)Nc1ccc2ccn(Cc3ccc(C(=O)OC(=O)N(c4ccccc4)c4ccccc4)cc3OC)c2c1 (stereo not given),159 to 162
6,O=C1c2ccc(OCCO)cc2C(=O)c2cc(-c3nnn[nH]3)ccc21,260 to 262
7,CC1(NC(=O)C(Br)CBr)COCOC1 (stereo not given),115 to 119
8,CC(=O)N[C@@H](CSC(=O)C(C)(C)C)C(=O)NCCSC(C)=O,92 to 94
9,NC(=O)c1nc(-c2ccccc2)[nH]c1N,300
10,O=C1NC=C(C(=O)O)CN1,139 to 141
11,CC(C)(C)C(=O)Nc1nn(-c2ccc(F)cc2F)c2c1C1CCC2C1 (stereo not given),136 to 138
12,CCOC(=O)C=C(Nc1cn[nH]c1)C(=O)OCC,69 to 71
13,Cc1[nH]ncc1C(=O)Nc1ccc(OCC(C)(C)C)c(C#N)c1,133 to 134
14,O=C(Nc1cccc(S(=O)(=O)NCC2CC2)c1)c1cnn2c(C(F)F)cc(-c3ccc(C(F)(F)F)cc3)nc12,238
15,O=C1CCc2cc(N/C(=C3\C(=O)Nc4ccc([N+](=O)[O-])cc43)c3ccccc3)ccc2N1,> 300
16,Cc1ccc(C(=O)Cl)cc1OCc1ccccc1,49 to 51
17,CC(C)Oc1ccc(-n2c(-c3ccc(C(=O)O)cc3)c(C(=O)O)c3cc(Oc4ccc(C(F)(F)F)cc4)ccc32)cc1,268 to 270
18,CCCCCc1cc(C(=O)OC)ccc1O,82.5 to 83.5
19,Cn1cc(C(=O)Nc2ccccc2-c2ccc(Cl)c(Cl)c2)c(C(F)(F)F)n1,131 to 133
20,Cc1nn(Cc2cccc(Cl)c2)cc1C(=O)CC(=O)C(=O)O,183 to 184
21,COC(=O)c1sccc1S(=O)(=O)Nc1onc(C)c1Br,188 to 194
22,CC(=O)n1nc(C(N)=O)c2ccccc21,165 to 171
23,Cc1cc(C)cc(-c2nc(NC(=O)C(C)C)sc2-c2ccncc2)c1,270 to 272
24,O=[N+]([O-])c1cccc2nc3c(nc12)OCC1CCCCN31 (stereo not given),205 to 207
25,CC1C(C)(C)C2=C(c3oncc3CC2)C1(C)C (stereo not given),81

row,SMILES,melting point [°C]
1,CNC(=O)[C@H](Cc1ccc(OCc2ccccc2)cc1)NC(=O)[C@H](CC(C)C)N[C@H](C)C(=O)OC,65 to 68
2,Cc1c(CCC(=O)O)oc2cccc(O)c12,114 to 117
3,CC(=O)Oc1cc(Cl)ccc1C(=O)NCCO[N+](=O)[O-],75 to 77
4,CO[C@H]1O[C@@H](C)[C@@H]2[C@H](O)[C@H]3CCCC[C@@H]3C[C@H]12,123 to 124
5,CCOC(=O)c1cc(C(=O)c2cccc(S(=O)(=O)F)c2)sc1NC(=O)OCC(Cl)(Cl)Cl,108 to 110
6,Cc1cccc(C(=O)NNC(=O)c2ccccc2Cc2ccccc2)c1,149 to 150
7,CCOC(=O)C=Cc1ccc(CCNS(=O)(=O)CCc2ccc(Cl)cc2)cc1,91 to 92
8,CCOP(=O)(OCC)c1nc(NC2CC(C)(C)NC(C)(C)C2)nc(NC2CC(C)(C)NC(C)(C)C2)n1,195
9,FC(F)(F)C(F)(F)c1nc(-c2ccc(OCCCn3ccnc3)cc2)no1,60.5 to 61.5
10,O=C(O)c1cn(C2CC2)c2c(F)c(N3CCC(=NO)C3)c(F)c(F)c2c1=O,300
11,CCCCOc1ncc(C(C)O)cc1-c1nc2c(CC)n(C3CN(CC)C3)nc2c(=O)[nH]1 (stereo not given),117 to 119
12,CC(Oc1ccc([N+](=O)[O-])cc1)C(=O)OCCOC(=O)C(C)Oc1ccc([N+](=O)[O-])cc1 (stereo not given),118 to 120
13,CC(C)C1(C)N=C(c2ccccc2C(=O)O)NC1=S (stereo not given),192 to 198
14,CNC(C)=C(C#N)C(=O)c1ccc(Cl)cc1,152
15,O=C(O)CCNC(=S)Nc1ccc2cn[nH]c2c1,175
16,COc1cc(OCC(=O)O)c(C)cc1SCc1cccc(-c2cccc(OC(F)(F)F)c2)c1,92 to 94
17,CN1C(=O)N(CCC(NS(=O)(=O)c2ccc(-c3ccc(Cl)cc3)cc2)C(=O)O)C(=O)C1(C)C (stereo not given),43
18,CCOC(=O)C1(c2ccccc2)CCN(C/C=C/C(C#N)(c2ccccc2)c2ccccc2)CC1,100 to 102
19,CC(=O)Nc1c(C(=O)c2cccc([N+](=O)[O-])c2)[nH]c2cc(Cl)ccc12,246 to 250
20,Cn1c(=O)[nH]c2sccc2c1=O,263 to 265
21,O=c1[nH]c2ccc(C(F)(F)F)cc2c(-c2cc(Cl)ccc2O)c1CO,> 250
22,CCN(C(=O)OC(C)(C)C)c1cnn(C(C)(C)C)c1Cl,50 to 52
23,C=Cc1cc(C(C)NC(=O)OC(C)(C)C)ccc1NS(=O)(=O)C=C (stereo not given),80 to 82
24,CC(C)(C)C1=CC(=O)C2=C(CCCC2)C1=O,50 to 52
25,COc1ccc(-c2ccccc2)cc1NC(=O)c1ncc[nH]1,276
